Consider 17 compounds from PubChem BioAssay AID180 (DTP/NCI, 2004).

This experiment relates to BDF1 mice, Adenocarcinoma 755 s.c., tumor weight T/C. The experiment can be described thus: NCI In Vivo Anticancer Drug Screen. Data for tumor model Adenocarcinoma 755 (subcutaneous) in B6D2F1 (BDF1) mice. Conditions: endpoint: mean tumor weight, higher = larger tumour. The gist of the method: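 In vivo antitumor screen on a transplantable tumor line. Result equals the measure in compound-treated animals divided by the same measure in vehicle controls.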

Where [1] appears, read: dose: 75.0 mg/kg/injection, schedule: Q01DX011 (ip), vehicle: methylcellulose (MC).
Setting [2] is: dose: 15.0 mg/kg/injection, schedule: Q01DX011 (ip), vehicle: methylcellulose (MC).
The mark [3] stands for this setting: dose: 120.0 mg/kg/injection, schedule: Q01DX011 (ip), vehicle: methylcellulose (MC).
Where [4] appears, read: dose: 25.0 mg/kg/injection, schedule: Q01DX011 (ip), vehicle: methylcellulose (MC).
[5] abbreviates: dose: 225.0 mg/kg/injection, schedule: Q01DX011 (ip), vehicle: methylcellulose (MC).

Molecules are shown by their SMILES. “And” between values parts separate entries of the source, which are not always exact repeats. Identical values can stand only once.

As a reminder, the T/C is the result in the treated group divided by that in the control group, in per cent.

For the compound `CN(Cc1cnc2nc(N)nc(N)c2n1)c1ccc(C(=O)N[C@@H](CCC(=O)O)C(=O)O)cc1`, the T/C is 94 % of control (dose: 0.56 mg/kg/injection, schedule: Q01DX011 (ip), vehicle: carboxymethylcellulose (CMC)); 57 % of control (dose: 0.84 mg/kg/injection, schedule: Q01DX011 (ip), vehicle: carboxymethylcellulose (CMC)); 77 % of control (dose: 1.0 mg/kg/injection, schedule: Q01DX011 (ip), vehicle: other); 48 % of control (dose: 1.05 mg/kg/injection, schedule: Q01DX011 (ip), vehicle: carboxymethylcellulose (CMC)); 48 % of control (dose: 1.13 mg/kg/injection, schedule: Q01DX011 (ip), vehicle: carboxymethylcellulose (CMC)); 36 % of control (dose: 1.4 mg/kg/injection, schedule: Q01DX011 (ip), vehicle: carboxymethylcellulose (CMC)). Moreover, the T/C (dose: 2.0 mg/kg/injection, schedule: Q01DX011 (ip), vehicle: carboxymethylcellulose (CMC)) is 49 % of control; the T/C (dose: 2.0 mg/kg/injection, schedule: Q01DX011 (ip), vehicle: other) is 43 % of control; the T/C (dose: 2.1 mg/kg/injection, schedule: Q01DX011 (ip), vehicle: carboxymethylcellulose (CMC)) was 27 % of control; the T/C (dose: 2.25 mg/kg/injection, schedule: Q01DX011 (ip), vehicle: carboxymethylcellulose (CMC)) was 96 % of control; the T/C (dose: 4.5 mg/kg/injection, schedule: Q01DX011 (ip), vehicle: carboxymethylcellulose (CMC)) is 48 % of control; the T/C (dose: 263.0 micrograms/kg/injection, schedule: Q01DX011 (ip), vehicle: carboxymethylcellulose (CMC)) was 66 % of control. Besides, the T/C was 53 % of control (dose: 525.0 micrograms/kg/injection, schedule: Q01DX011 (ip), vehicle: carboxymethylcellulose (CMC)); 63 % of control (dose: 563.0 micrograms/kg/injection, schedule: Q01DX011 (ip), vehicle: carboxymethylcellulose (CMC)); 68 % of control (dose: 1050.0 micrograms/kg/injection, schedule: Q01DX011 (ip), vehicle: carboxymethylcellulose (CMC)); 97 % of control (dose: 1125.0 micrograms/kg/injection, schedule: Q01DX011 (ip), vehicle: carboxymethylcellulose (CMC)); 31 % of control (dose: 2100.0 micrograms/kg/injection, schedule: Q01DX011 (ip), vehicle: carboxymethylcellulose (CMC)); 68 % of control (dose: 2250.0 micrograms/kg/injection, schedule: Q01DX011 (ip), vehicle: carboxymethylcellulose (CMC)).
In the case of `CCC(C)Cn1cnc2c(=O)[nH]c(N)nc21` (centres undefined), the T/C (dose: 37.5 mg/kg/injection, schedule: Q01DX011 (ip), vehicle: methylcellulose (MC)) was 75 % of control; the T/C under setting [1] was 49 % of control; the T/C (dose: 150.0 mg/kg/injection, schedule: Q01DX011 (ip), vehicle: methylcellulose (MC)) was 67 % of control.
Consider `O=C(Nc1ccc(C2=NC3CCCCC3N2)cc1)c1cccc(C(=O)Nc2ccc(C3=NC4CCCCC4N3)cc2)c1` (centres undefined), for which the T/C is 73 % of control under setting [2]; 81 % of control (dose: 30.0 mg/kg/injection, schedule: Q01DX011 (ip), vehicle: methylcellulose (MC)); 73 % of control (dose: 60.0 mg/kg/injection, schedule: Q01DX011 (ip), vehicle: methylcellulose (MC)); 59 % of control under setting [3].
On to `NS(=O)(=O)c1nc(S(=O)(=O)O)c2[nH]cnc2n1`, for which the T/C is 95 % of control (dose: 30.0 mg/kg/injection, schedule: Q01DX011 (ip), vehicle: carboxymethylcellulose (CMC)); 76 % of control (dose: 60.0 mg/kg/injection, schedule: Q01DX011 (ip), vehicle: carboxymethylcellulose (CMC)); 86 % of control (dose: 120.0 mg/kg/injection, schedule: Q01DX011 (ip), vehicle: carboxymethylcellulose (CMC)).
`CCCCCCCCCCCCCCCC[n+]1ccccc1`: the T/C was 89 % of control (dose: 0.12 mg/kg/injection, schedule: Q01DX011 (ip), vehicle: water); 79 % of control (dose: 0.25 mg/kg/injection, schedule: Q01DX011 (ip), vehicle: water); 89 % of control (dose: 0.5 mg/kg/injection, schedule: Q01DX011 (ip), vehicle: water).
In the case of `Cc1cn(C2OC(CO)C(O)C2O)c(=O)[nH]c1=O` (centres undefined), the T/C is, setting by setting: (dose: 62.0 mg/kg/injection, schedule: Q01DX011 (ip), vehicle: saline) 86 % of control; (dose: 125.0 mg/kg/injection, schedule: Q01DX011 (ip), vehicle: saline) 78 % of control; (dose: 500.0 mg/kg/injection, schedule: Q01DX011 (ip), vehicle: saline) 121 % of control.
In the case of `Cc1ccc(C)c(N=Nc2c(S(=O)(=O)O)cc3cc(NC(=O)Nc4ccc5c(O)c(N=Nc6ccc7cc(S(=O)(=O)O)ccc7c6)c(S(=O)(=O)O)cc5c4)ccc3c2O)c1`, the T/C (dose: 45.0 mg/kg/injection, schedule: Q01DX011 (ip), vehicle: carboxymethylcellulose (CMC)) was 59 % of control.
`CC1CCc2ccccc2N1C(=O)CCCl` (centres undefined): the T/C is, setting by setting: under setting [4], 48 % of control; under setting [1], 82 % of control; under setting [5], 50 % of control.
Turning to `Cc1ccc(/C=N/Nc2nc3c(c(=O)n(C)c(=O)n3C)n2C)cc1`, the T/C by setting is: under setting [4], 77 % of control; under setting [1], 60 % of control; under setting [5], 39 % of control.
For the compound `COc1ccc(C2=NC(=O)NC2c2ccc(OC)cc2)cc1` (centres undefined), the T/C by setting is: (dose: 10.0 mg/kg/injection, schedule: Q01DX011 (ip), vehicle: saline) 112 % of control; (dose: 50.0 mg/kg/injection, schedule: Q01DX011 (ip), vehicle: saline) 18 % of control.
Regarding `CSc1ncc(Br)c(SCc2ccc(Cl)cc2Cl)n1`, the T/C runs as follows: under setting [2], 69 % of control; (dose: 31.0 mg/kg/injection, schedule: Q01DX011 (ip), vehicle: methylcellulose (MC)) 108 % of control; (dose: 250.0 mg/kg/injection, schedule: Q01DX011 (ip), vehicle: methylcellulose (MC)) 60 % of control.
Take `CN1CCC(CN2c3ccccc3Sc3ccccc32)CC1`: under setting [3], the T/C was 23 % of control.
On to `NC(CCSCc1ccc(N(CCCl)CCCl)cc1)C(=O)O` (centres undefined), for which the T/C is, setting by setting: (dose: 4.5 mg/kg/injection, schedule: Q01DX011 (ip), vehicle: saline) 99 % of control and 74 % of control; (dose: 9.0 mg/kg/injection, schedule: Q01DX011 (ip), vehicle: saline) 43 % of control and 54 % of control; (dose: 36.0 mg/kg/injection, schedule: Q01DX011 (ip), vehicle: saline) 29 % of control; (dose: 54.0 mg/kg/injection, schedule: Q01DX011 (ip), vehicle: saline) 21 % of control.
Turning to `O=[N+]([O-])c1ccc2ncccc2c1`, the T/C is 83 % of control (dose: 31.2 mg/kg/injection, schedule: Q01DX011 (ip), vehicle: other) and 52 % of control (dose: 62.5 mg/kg/injection, schedule: Q01DX011 (ip), vehicle: other).
`NS(=O)(=O)c1ncc2[nH]cnc2n1`: the T/C is, setting by setting: (dose: 225.0 mg/kg/injection, schedule: Q01DX011 (ip), vehicle: carboxymethylcellulose (CMC)) 111 % of control; (dose: 450.0 mg/kg/injection, schedule: Q01DX011 (ip), vehicle: carboxymethylcellulose (CMC)) 82 % of control.
For the compound `C[C@]12C=CC(=O)C=C1CC[C@@H]1[C@@H]2[C@@H](O)C[C@@]2(C)[C@H]1CC[C@]2(O)C(=O)COC(=O)CCC1CCCC1`, the T/C was 64 % of control (dose: 3.1 mg/kg/injection, schedule: Q01DX011 (sc), vehicle: steriod suspending solution); 43 % of control (dose: 6.25 mg/kg/injection, schedule: Q01DX011 (sc), vehicle: steriod suspending solution); 47 % of control (dose: 6.25 mg/kg/injection, schedule: Q01DX011 (sc), vehicle: water); 34 % of control (dose: 12.5 mg/kg/injection, schedule: Q01DX011 (sc), vehicle: steriod suspending solution); 32 % of control (dose: 12.5 mg/kg/injection, schedule: Q01DX011 (sc), vehicle: water); 22 % of control (dose: 25.0 mg/kg/injection, schedule: Q01DX011 (sc), vehicle: steriod suspending solution). Further, the T/C is, setting by setting: (dose: 25.0 mg/kg/injection, schedule: Q01DX011 (sc), vehicle: water) 12 % of control; (dose: 50.0 mg/kg/injection, schedule: Q01DX011 (sc), vehicle: steriod suspending solution) 13 % of control.
For the compound `Nc1nc2c(nnn2C2OC(CO)C(O)C2O)c(=O)[nH]1` (centres undefined), the T/C (dose: 12.0 mg/kg/injection, schedule: Q01DX011 (ip), vehicle: methylcellulose (MC)) is 38 % of control.
